According to US9139519B2, “Organonitro thioether compounds and medical uses thereof” (EPICENTRX, INC., priority 2011, dated 2015):

Assays:
[1] = Toxicity evaluation in healthy rats; type: in vivo; details: for Clinical observations: femoral vein infusion
Procedure: Compound 1 was administered to healthy rats and the rats were evaluated for evidence of toxic side effects due to Compound 1. Experimental procedures and results are described below.
Two groups of 3 male rats each were given a 100 or 300 mg/kg dose of Compound 1 prepared in 0.9% saline solution. A third group of 3 rats were given saline alone. Doses were delivered via a femoral vein. The 100 mg/kg dose was delivered using a 10 mg/mL solution at a dose volume of 10 mL/kg and an infusion rate of 15 mL/hr. The 300 mg/kg dose was delivered using a 20 mg/mL solution at a dose volume of 15 mL/kg and an infusion rate of 15 mL/hr.

SCCVII tumor = assay: Anti-cancer assay: SCCVII tumor volume in C3H mice; type: in vivo; details: male C3H mice with subcutaneous SCCVII tumors; 1.15 mg/mL in 5% DMSO/water, intraperitoneal, q.o.d. on Days 0, 2 and 4 (3 doses)
Procedure: Mice with SCC VII tumors were treated with Compound 1, which has the following chemical structure.
The Treatment Composition was Compound 1 in a water/DMSO carrier. The Treatment Composition was prepared by dissolving 2.3 mg of Compound 1 in 0.1 mL of DMSO and mixing the resultant solution with 1.9 mL of water to provide a solution containing 1.15 mg/mL of Compound 1. The concentration of dimethylsulfoxide (DMSO) in the Treatment Composition was 5%.
Male C3H mice were obtained from Charles River Laboratories and maintained under specific pathogen-free conditions. Mice were housed five animals per cage and autoclaved food and water was provided ad libitum. Cages were located in rooms having a temperature of 65±2 degrees Fahrenheit, a humidity of 50%±5%, and a 12-hour day-and-night light cycle. Mice were 7-8 weeks old, with a body weight in the range of 22-25 grams, at the time inoculated with tumor cells.
Mice were inoculated subcutaneously with 5×10^5 SCCVII tumor cells in 0.05 mL Hank's solution on the back. […] The length and width of the tumors were measured with calipers immediately before treatment and three times a week thereafter until the tumor volume reached at least four times (4×) the original pre-treatment volume. Tumor volume (mm^3) was calculated according to the formula: Tumor Volume=π/6×length×width^2 Part II: Results

N[C@@H](CSCC(=O)N1CC([N+](=O)[O-])([N+](=O)[O-])C1)C(=O)O [Compound 1]
Toxicity (overall conclusion) ([1]; healthy male rats, 100 or 300 mg/kg in 0.9% saline via femoral vein, observed for 24 hours): no significant toxicity was observed | Clinical observations ([1]; rats, 100 mg/kg dose, observed for 24 hours): No notable clinical observations | Clinical observations ([1]; rats, 300 mg/kg dose, observed for 24 hours): pale during the first 3 hours post dose | Gross changes in the lungs at necropsy ([1]; rats, 100 or 300 mg/kg, necropsy after 24 hours): no gross changes in the lungs | Kidney observation at necropsy ([1]; rats, 100 or 300 mg/kg, necropsy after 24 hours, significance undetermined): Mottled kidneys were observed in most rats | Tumor volume versus untreated control (SCCVII tumor): smaller than tumors in mice that did not receive the Treatment Composition
